Results from patent US5698670A, “Aureobasidins” (priority 1993, dated 1997).
Converted amounts (≈) assume the structure as drawn. Where two headings read alike, the source gives them in different places. Numbered stars: 1 amine (or outer) side, 2 acyl side, 3 side chain; on linkers, the order of the positions; unused ones are H or OH. Square brackets hold non-standard residues; d marks the D form. Peptide text beside a SMILES is read from it. * marks the point of attachment. X1 = CC[C@@H](C)[C@@H](O[*:1])C(=O)[*:2]; NMeVal(β-OH) = CN[C@H](C(=O)O)C(C)(C)O; NMeF = CN[C@@H](Cc1ccccc1)C(=O)O; aIle = CC[C@@H](C)[C@H](N)C(=O)O; Cyclohexylmethyl = C1CCC(C*)CC1; Cha = N[C@@H](CC1CCCCC1)C(=O)O; dNMeV = CN[C@@H](C(=O)O)C(C)C; NMeV = CN[C@H](C(=O)O)C(C)C; dNMeS = CN[C@H](CO)C(=O)O; dNMeA = CN[C@H](C)C(=O)O; Bn = c1ccc(C*)cc1

Tests used:
[1] = amide bond, 27-membered ring, PyBroP/DIEA, CH2Cl2
[2] = system: Candida glabrata TIMM1062; assay: MIC by agarose plate dilution method; type: cell-based; conditions: saburo-dextrose agarose culture, 30° C., 2 days
Procedure: (§1) MIC was measured by agarose plate dilution method (cultivated at 30° C. for 2 days) using saburo-dextrose agarose culture (glucose 2 W/V %, polipeptone 1 W/V %, agarose 1.5 W/V %). Control was Aureobasidin A (AbA).

[3] = system: Candida albicans TIMM0171; assay: MIC by agarose plate dilution method; type: cell-based; conditions: saburo-dextrose agarose culture, 30° C., 2 days
Procedure: as §1

[4] = system: Candida kefyr TIMM0301; assay: MIC by agarose plate dilution method; type: cell-based; conditions: saburo-dextrose agarose culture, 30° C., 2 days
Procedure: as §1

[5] = system: Candida albicans TIMM0136; assay: MIC by agarose plate dilution method; type: cell-based; conditions: saburo-dextrose agarose culture, 30° C., 2 days
Procedure: as §1

[6] = system: Cryptococcus neoformans TIMM0354; type: cell-based; conditions: for activity for Cryptococcus compared with Aureobasidin A: in words
Procedure: as §1

[7] = system: Aspergillus fumigatus TIMM2766; type: cell-based
Procedure: as §1

[8] = Cryptococcus neoformans TIMM0354, saburo-dextrose agarose culture, 30° C., 2 days
[9] = Aspergillus fumigatus TIMM2766, saburo-dextrose agarose culture, 30° C., 2 days

Row | Compound | MIC [2] | MIC [3] | MIC [4] | MIC [5] | MIC [6, 8] | MIC ([6]; TIMM0354) | MIC [7, 9] | also measured
1 | CC[C@@H](C)[C@@H]1NC(=O)[C@@H]2CCCN2C(=O)[C@@H](C(C)C)N(C)C(=O)[C@H](Cc2ccccc2)NC(=O)[C@H](C(C)C)N(C)C(=O)[C@@H]([C@H](C)CC)OC(=O)[C@H](C(C)(C)O)N(C)C(=O)[C@H](CC(C)C)NC(=O)[C@H](C(C)C)N(C)C1=O | – | – | – | – | – | – | – | ring closure, isolated yield ([1]; from H-aIle-MeVal-Leu-βHOMeVal-dHmp-MeVal-Phe-dMeVal-Pro-OH, 1.0 mM, 25.0 °C): 35%
2 | CC[C@@H](C)[C@@H]1NC(=O)[C@@H]2CCCN2C(=O)[C@@H](C)N(C)C(=O)[C@H](Cc2ccc(F)cc2)NC(=O)[C@H](C(C)C)N(C)C(=O)[C@@H]([C@H](C)CC)OC(=O)[C@H](C(C)(C)O)N(C)C(=O)[C@H](CC(C)C)NC(=O)[C@H](C(C)C)N(C)C1=O | – | – | – | – | – | – | – | ring closure, isolated yield ([1]; from H-aIle-MeVal-Leu-βHOMeVal-dHmp-MeVal-pFPhe-dMeAla-Pro-OH, 1.0 mM, 25.0 °C): 29.8%
3 | CC[C@@H](C)[C@@H]1NC(=O)[C@@H]2CCCN2C(=O)[C@@H](C)N(C)C(=O)[C@H](Cc2ccc(OCc3ccccc3)cc2)NC(=O)[C@H](C(C)C)N(C)C(=O)[C@@H]([C@H](C)CC)OC(=O)[C@H](C(C)(C)O)N(C)C(=O)[C@H](CC(C)C)NC(=O)[C@H](C(C)C)N(C)C1=O | – | – | – | – | – | – | – | ring closure, isolated yield ([1]; from H-aIle-MeVal-Leu-βHOMeVal-dHmp-MeVal-Tyr(Bzl)-dMeAla-Pro-OH, 1.0 mM): 41.5%
4 | CC[C@@H](C)[C@@H]1NC(=O)[C@@H]2CCCN2C(=O)[C@@H](COCc2ccccc2)N(C)C(=O)[C@H](CC2CCCCC2)NC(=O)[C@H](C(C)C)N(C)C(=O)[C@@H]([C@H](C)CC)OC(=O)[C@H](C(C)(C)O)N(C)C(=O)[C@H](CC(C)C)NC(=O)[C@H](C(C)C)N(C)C1=O | – | – | – | – | – | – | – | ring closure, isolated yield ([1]; from H-aIle-MeVal-Leu-βHOMeVal-dHmp-MeVal-Cha-dMeSer(Bzl)-Pro-OH, 1.0 mM): 34.3%
5 | CC[C@@H](C)[C@@H]1NC(=O)[C@@H]2CCCN2C(=O)[C@@H](C)N(C)C(=O)[C@H](Cc2ccccc2)NC(=O)[C@H](C(C)C)N(C)C(=O)[C@@H]([C@H](C)CC)OC(=O)[C@H](C(C)(C)O)N(C)C(=O)[C@H](CC(C)C)NC(=O)[C@H](C(C)C)N(C)C1=O [Compound 1, cyclo(L -aIle-L -MeVal-L -Leu-L -βHOMeVal-D -Hmp-L -MeVal-L -Phe-D -MeAla-L -Pro)] (cyclo([aIle][NMeV]L[NMeVal(β-OH)][X1][NMeV]F[dNMeA]P)) | 0.20 µg/mL (≈ 0.195 µM) | 0.05 µg/mL (≈ 0.0488 µM) | 0.20 µg/mL (≈ 0.195 µM) | 0.05 µg/mL (≈ 0.0488 µM) | 3.12 µg/mL (≈ 3.04 µM) | – | – | ring closure, isolated yield ([1]; from H-aIle-MeVal-Leu-βHOMeVal-dHmp-MeVal-Phe-dMeAla-Pro-OH, 0.97 mM, 25.0 °C): 55.5%
6 | CC[C@@H](C)[C@@H]1NC(=O)[C@@H]2CCCN2C(=O)[C@@H](C)N(C)C(=O)[C@H](CC2CCCCC2)NC(=O)[C@H](C(C)C)N(C)C(=O)[C@@H]([C@H](C)CC)OC(=O)[C@H](C(C)(C)O)N(C)C(=O)[C@H](CC(C)C)NC(=O)[C@H](C(C)C)N(C)C1=O [Compound 3, cyclo(L -aIle-L -MeVal-L -Leu-L -βHOMeVal-D -Hmp-L -MeVal-L -Cha-D -MeAla-L -Pro)] (cyclo([aIle][NMeV]L[NMeVal(β-OH)][X1][NMeV][Cha][dNMeA]P)) | 0.10 µg/mL (≈ 0.097 µM) | 0.025 µg/mL (≈ 0.0242 µM) | 0.20 µg/mL (≈ 0.194 µM) | 0.0125 µg/mL (≈ 0.0121 µM) | 0.10 µg/mL (≈ 0.097 µM) | 0.10 to 0.39 µg/mL | 3.12 µg/mL (≈ 3.03 µM) | activity for Cryptococcus compared with Aureobasidin A [6]: stronger activity than Aureobasidin A; MIC ([7]; TIMM2766): 1.56 to 25 µg/mL; ring closure, isolated yield ([1]; from H-aIle-MeVal-Leu-βHOMeVal-dHmp-MeVal-Cha-dMeAla-Pro-OH, 1.0 mM, 25.0 °C): 28.6%
7 | CC[C@@H](C)[C@@H]1NC(=O)[C@@H]2CCCN2C(=O)[C@@H](C)N(C)C(=O)[C@H](CC(C)C)NC(=O)[C@H](C(C)C)N(C)C(=O)[C@@H]([C@H](C)CC)OC(=O)[C@H](C(C)(C)O)N(C)C(=O)[C@H](CC(C)C)NC(=O)[C@H](C(C)C)N(C)C1=O [Compound 5, cyclo(L -aIle-L -MeVal-L -Leu-L -βHOMeVal-D -Hmp-L -MeVal-L -Leu-D -MeAla-L -Pro)] (cyclo(L[dNMeA]P[aIle][NMeV]L[NMeVal(β-OH)][X1][NMeV])) | – | – | – | – | – | 0.10 to 0.39 µg/mL | – | ring closure, isolated yield ([1]; from H-aIle-MeVal-Leu-βHOMeVal-dHmp-MeVal-Leu-dMeAla-Pro-OH, 1.0 mM, 25.0 °C): 39.4%
8 | CC[C@@H](C)[C@@H]1NC(=O)[C@@H]2CCCN2C(=O)[C@H](Cc2ccccc2)N(C)C(=O)[C@H](CC2CCCCC2)NC(=O)[C@H](C(C)C)N(C)C(=O)[C@@H]([C@H](C)CC)OC(=O)[C@H](C(C)(C)O)N(C)C(=O)[C@H](CC(C)C)NC(=O)[C@H](C(C)C)N(C)C1=O [Compound 6, cyclo(L -aIle-L -MeVal-L -Leu-L -βHOMeVal-D -Hmp-L -MeVal-L -Cha-L -MePhe-L -Pro)] (cyclo([aIle][NMeV]L[NMeVal(β-OH)][X1][NMeV][Cha][NMeF]P)) | 1.56 µg/mL (≈ 1.41 µM) | 0.20 µg/mL (≈ 0.181 µM) | 1.56 µg/mL (≈ 1.41 µM) | 0.39 µg/mL (≈ 0.352 µM) | 0.20 µg/mL (≈ 0.181 µM) | 0.10 to 0.39 µg/mL | > 25 µg/mL | ring closure, isolated yield ([1]; from H-aIle-MeVal-Leu-βHOMeVal-dHmp-MeVal-Cha-MePhe-Pro-OH?, 1.01 mM, 25.0 °C): 23.9%
9 | CC[C@@H](C)[C@@H]1NC(=O)[C@@H]2CCCN2C(=O)[C@@H](C)N(C)C(=O)[C@H](COCc2ccccc2)NC(=O)[C@H](C(C)C)N(C)C(=O)[C@@H]([C@H](C)CC)OC(=O)[C@H](C(C)(C)O)N(C)C(=O)[C@H](CC(C)C)NC(=O)[C@H](C(C)C)N(C)C1=O [Compound 7, cyclo(L -aIle-L -MeVal-L -Leu-L -βHOMeVal-D -Hmp-L -MeVal-L -Ser(Bzl)-D -MeAla-L -Pro)] (cyclo(L[NMeVal(β-OH)][X1][NMeV]S(Bn)[dNMeA]P[aIle][NMeV])) | – | – | – | – | – | 0.10 to 0.39 µg/mL | – | ring closure, isolated yield ([1]; from H-aIle-MeVal-Leu-βHOMeVal-dHmp-MeVal-Ser(Bzl)-dMeAla-Pro-OH, 1.0 mM, 25.0 °C): 45.2%
10 | CC[C@@H](C)[C@@H]1NC(=O)[C@@H]2CCCN2C(=O)[C@@H](C(C)C)N(C)C(=O)[C@H](CC2CCCCC2)NC(=O)[C@H](C(C)C)N(C)C(=O)[C@@H]([C@H](C)CC)OC(=O)[C@H](C(C)(C)O)N(C)C(=O)[C@H](CC(C)C)NC(=O)[C@H](C(C)C)N(C)C1=O [Compound 8, cyclo(L -aIle-L -MeVal-L -Leu-L -βHOMeVal-D -Hmp-L -MeVal-L -Cha-D -MeVal-L -Pro)] (cyclo([aIle][NMeV]L[NMeVal(β-OH)][X1][NMeV][Cha][dNMeV]P)) | 0.78 µg/mL (≈ 0.736 µM) | 0.05 µg/mL (≈ 0.0472 µM) | 0.78 µg/mL (≈ 0.736 µM) | 0.10 µg/mL (≈ 0.0944 µM) | 0.39 µg/mL (≈ 0.368 µM) | 0.10 to 0.39 µg/mL | > 25 µg/mL | ring closure, isolated yield ([1]; from H-aIle-MeVal-Leu-βHOMeVal-dHmp-MeVal-Cha-dMeVal-Pro-OH, 1.0 mM): 20.5%
11 | CC[C@@H](C)[C@@H]1NC(=O)[C@@H]2CCCN2C(=O)[C@@H](CO)N(C)C(=O)[C@H](CC2CCCCC2)NC(=O)[C@H](C(C)C)N(C)C(=O)[C@@H]([C@H](C)CC)OC(=O)[C@H](C(C)(C)O)N(C)C(=O)[C@H](CC(C)C)NC(=O)[C@H](C(C)C)N(C)C1=O [Compound 9, cyclo(L -aIle-L -MeVal-L -Leu-L -βHOMeVal-D -Hmp-L -MeVal-L -Cha-D -MeSer-L -Pro)] (cyclo([aIle][NMeV]L[NMeVal(β-OH)][X1][NMeV][Cha][dNMeS]P)) | 0.78 µg/mL (≈ 0.745 µM) | 0.20 µg/mL (≈ 0.191 µM) | 0.78 µg/mL (≈ 0.745 µM) | 0.20 µg/mL (≈ 0.191 µM) | 0.20 µg/mL (≈ 0.191 µM) | 0.10 to 0.39 µg/mL | > 25 µg/mL | –
12 | CC[C@@H](C)[C@@H]1NC(=O)[C@@H]2CCCN2C(=O)[C@@H](C)N(C)C(=O)[C@H](Cc2ccc(OCC3CCCCC3)cc2)NC(=O)[C@H](C(C)C)N(C)C(=O)[C@@H]([C@H](C)CC)OC(=O)[C@H](C(C)(C)O)N(C)C(=O)[C@H](CC(C)C)NC(=O)[C@H](C(C)C)N(C)C1=O [Compound 12, cyclo(L -aIle-L -MeVal-L -Leu-L -βHOMeVal-D -Hmp-L -MeVal-L -Tyr(c-C6 H11 --CH2 --)-D -MeAla-L -Pro)] (cyclo([aIle][NMeV]L[NMeVal(β-OH)][X1][NMeV]Y(Cyclohexylmethyl)[dNMeA]P)) | 0.39 µg/mL (≈ 0.343 µM) | 0.39 µg/mL (≈ 0.343 µM) | 1.56 µg/mL (≈ 1.37 µM) | 0.10 µg/mL (≈ 0.0879 µM) | 0.20 µg/mL (≈ 0.176 µM) | 0.10 to 0.39 µg/mL | 1.56 µg/mL (≈ 1.37 µM) | activity for Cryptococcus compared with Aureobasidin A [6]: stronger activity than Aureobasidin A; MIC ([7]; TIMM2766): 1.56 to 25 µg/mL; ring closure, isolated yield ([1]; from H-aIle-MeVal-Leu-βHOMeVal-dHmp-MeVal-Tyr(c-C6H11-CH2)-dMeAla-Pro-OH, 1.0 mM): 52.3%
